Results from PMC10866925, “Catalyst-free late-stage functionalization to assemble α-acyloxyenamide electrophiles for selectively profiling conserved lysine residues” (Communications Chemistry, 2024).
Values belong to the molecule of their own block, whether it stands above or below them.

Key:
[1] = target: T1, ATP-dependent 6-phosphofructokinase, platelet type (PFKAP) (Homo sapiens, UniProt Q01813); experiment: pull-down/LC-MS and pull-down/WB in cells, K688R mutant and siRNA knockdown; assay type: cell-based
T1 construct: gene PFKP; full-length
T1 sequence (Q01813 1-784): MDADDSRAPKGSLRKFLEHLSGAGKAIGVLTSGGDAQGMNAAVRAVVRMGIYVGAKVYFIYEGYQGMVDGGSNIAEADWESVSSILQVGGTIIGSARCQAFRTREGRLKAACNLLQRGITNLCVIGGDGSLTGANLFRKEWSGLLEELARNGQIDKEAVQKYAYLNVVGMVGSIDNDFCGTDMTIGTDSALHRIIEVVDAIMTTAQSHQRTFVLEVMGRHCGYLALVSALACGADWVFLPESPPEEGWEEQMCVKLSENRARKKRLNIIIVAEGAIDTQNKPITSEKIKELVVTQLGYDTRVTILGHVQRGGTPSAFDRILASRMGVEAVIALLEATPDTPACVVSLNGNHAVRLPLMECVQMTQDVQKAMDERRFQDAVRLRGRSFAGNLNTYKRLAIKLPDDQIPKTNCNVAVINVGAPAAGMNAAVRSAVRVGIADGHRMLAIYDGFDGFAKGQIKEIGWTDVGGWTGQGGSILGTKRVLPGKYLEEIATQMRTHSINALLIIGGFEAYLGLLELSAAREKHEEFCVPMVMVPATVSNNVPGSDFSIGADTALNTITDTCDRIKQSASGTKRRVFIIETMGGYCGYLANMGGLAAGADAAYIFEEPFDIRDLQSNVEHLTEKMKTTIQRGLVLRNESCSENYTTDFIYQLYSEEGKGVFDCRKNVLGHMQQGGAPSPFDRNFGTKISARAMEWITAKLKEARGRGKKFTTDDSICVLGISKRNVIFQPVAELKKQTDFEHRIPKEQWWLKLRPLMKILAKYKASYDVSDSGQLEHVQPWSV

EGFR L858R mutant = EGFR L858R mutant (Homo sapiens, UniProt P00533, L858R); experiment: Z'-LYTE FRET kinase assay, time dependent ([…] at […] min, […] at […] h); also labelling of recombinant protein, LC-MS/MS site mapping, CETSA, competitive pull-down; assay type: biochemical
Chain of EGFR L858R mutant (P00533 669-1210 L858R limits assumed): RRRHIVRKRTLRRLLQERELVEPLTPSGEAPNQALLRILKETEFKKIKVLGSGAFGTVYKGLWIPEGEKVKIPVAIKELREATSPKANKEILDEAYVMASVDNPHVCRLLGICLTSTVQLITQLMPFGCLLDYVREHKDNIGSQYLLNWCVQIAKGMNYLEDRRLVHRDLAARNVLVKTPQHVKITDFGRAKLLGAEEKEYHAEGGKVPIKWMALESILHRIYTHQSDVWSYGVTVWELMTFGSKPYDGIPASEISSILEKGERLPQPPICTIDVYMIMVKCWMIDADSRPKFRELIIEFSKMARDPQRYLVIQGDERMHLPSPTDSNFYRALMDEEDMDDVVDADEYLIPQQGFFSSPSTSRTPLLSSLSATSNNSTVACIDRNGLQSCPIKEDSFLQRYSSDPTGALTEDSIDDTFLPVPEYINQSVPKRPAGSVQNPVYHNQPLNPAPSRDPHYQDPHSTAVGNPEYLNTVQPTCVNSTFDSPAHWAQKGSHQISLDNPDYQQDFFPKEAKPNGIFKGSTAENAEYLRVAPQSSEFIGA

CDK2 = target: T2, CDK2 (Homo sapiens, UniProt P24941); experiment: radiometric kinase assay ([…]-ATP, histone H1); also K33R pull-down/WB; assay type: biochemical
T2 construct: CDK2/cyclinA (h); with cyclin A

CDK5 = target: T3, CDK5 (Homo sapiens, UniProt Q00535); experiment: as above; assay type: biochemical
T3 construct: CDK5/p25 (h); with p25
T3 sequence (Q00535 whole entry): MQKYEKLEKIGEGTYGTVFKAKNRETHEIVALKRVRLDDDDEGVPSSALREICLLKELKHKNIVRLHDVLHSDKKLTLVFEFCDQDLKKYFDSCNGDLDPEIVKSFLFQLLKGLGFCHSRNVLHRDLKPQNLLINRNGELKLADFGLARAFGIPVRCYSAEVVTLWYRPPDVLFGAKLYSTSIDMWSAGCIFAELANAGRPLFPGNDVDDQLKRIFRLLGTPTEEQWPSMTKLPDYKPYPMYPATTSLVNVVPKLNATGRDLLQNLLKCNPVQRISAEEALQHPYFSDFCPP
T3 sequence (Q15078 99-307 partner limits assumed): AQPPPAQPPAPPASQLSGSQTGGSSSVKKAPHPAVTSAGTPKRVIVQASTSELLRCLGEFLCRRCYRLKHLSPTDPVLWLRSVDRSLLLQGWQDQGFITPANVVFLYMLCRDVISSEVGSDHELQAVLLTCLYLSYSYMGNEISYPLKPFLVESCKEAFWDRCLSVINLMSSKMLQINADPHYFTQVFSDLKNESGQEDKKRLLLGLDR

CDK1 = target: T4, CDK1 (Homo sapiens, UniProt P06493); experiment: radiometric kinase assay ([…]-ATP, histone H1); also MS of K33 modification, K33R pull-down/WB, CETSA; assay type: biochemical
T4 construct: CDK1/cyclinB (h); with cyclin B
T4 sequence (P06493 whole entry): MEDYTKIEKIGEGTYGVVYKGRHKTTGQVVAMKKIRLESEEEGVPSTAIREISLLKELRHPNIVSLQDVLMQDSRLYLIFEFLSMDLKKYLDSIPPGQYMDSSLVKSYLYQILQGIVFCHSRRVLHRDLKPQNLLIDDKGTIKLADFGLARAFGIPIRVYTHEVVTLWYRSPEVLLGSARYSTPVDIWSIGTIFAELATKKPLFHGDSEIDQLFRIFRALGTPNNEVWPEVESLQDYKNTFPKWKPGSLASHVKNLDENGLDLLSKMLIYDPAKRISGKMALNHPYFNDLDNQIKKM
T4 sequence (P14635 whole entry partner): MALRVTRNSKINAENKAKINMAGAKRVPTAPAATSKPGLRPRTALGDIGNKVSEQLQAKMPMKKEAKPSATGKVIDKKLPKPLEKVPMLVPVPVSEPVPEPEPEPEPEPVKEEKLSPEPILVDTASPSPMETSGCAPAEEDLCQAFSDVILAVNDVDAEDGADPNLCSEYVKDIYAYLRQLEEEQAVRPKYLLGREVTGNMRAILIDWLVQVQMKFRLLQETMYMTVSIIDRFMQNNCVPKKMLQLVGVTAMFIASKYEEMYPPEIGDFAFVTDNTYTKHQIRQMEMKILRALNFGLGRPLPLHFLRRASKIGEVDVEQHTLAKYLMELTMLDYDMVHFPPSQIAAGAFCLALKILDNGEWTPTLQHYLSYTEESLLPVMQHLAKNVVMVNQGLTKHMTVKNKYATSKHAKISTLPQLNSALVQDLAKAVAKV

SMILES: C#Cc1ccc(C(=O)OC(=C)N(C)S(=O)(=O)c2ccc(C)cc2)cc1 [A1]
pull-down/LC-MS and pull-down/WB in cells, K688R mutant and siRNA knockdown [1]: Mutation of PFKAP K688 in the protein binding pocket to K688R severely affects the probe labeling

IC50 (EGFR L858R mutant): 1.3 nM
SMILES: C#Cc1cccc(Nc2ncnc3cc(OC)c(OCCCCC(=O)OC(=C)N(C)S(=O)(=O)c4ccc(C)cc4)cc23)c1 [E3]

IC50 (CDK2): 2 to 6 µM | IC50 (CDK5): 2 to 6 µM | IC50 (CDK1): 2 to 6 µM
SMILES: C#CCNC(=O)c1cc(Nc2cc(C3CC3)[nH]n2)nc(N2CCN(C(=O)CCC(=O)OC(=C)N(C)S(=O)(=O)c3ccc(C)cc3)CC2)n1 [X1]
